Experimental data: patent publication US20240262835A1, “PRMT5 INHIBITING COMPOUNDS AND USES THEREOF” (ANTENGENE DISCOVERY LIMITED, priority 2023, published 2024)

Key:
in vitro [1] = details: dog, microsomes
[2] = Hepatic metabolic stability (HMS) assay, human hepatocytes; details: human, cryopreserved hepatocytes
in vitro [3] = details: cynomolgus monkey, microsomes
in vitro [4] = details: human, microsomes
[5] = Hepatic metabolic stability (HMS) assay, cynomolgus monkey hepatocytes; details: cynomolgus monkey, cryopreserved hepatocytes
Procedure: 1) 10 mM test compounds were provided.
(§8) 2) 30 mM positive control stock solutions: Dissolved accurate amount of positive control compounds in dimethyl sulfoxide (DMSO).
(§9) 3) 1000× Stock Solution: Diluted 10 mM test compounds and 30 mM positive control compounds to 1 mM and 3 mM with DMSO in 96-well plates.
(§10) 4) 100× Dosing Solution: Diluted 1 mM test compounds and 3 mM positive control compounds to 100 μM and 300 μM dosing solutions with ACN.
(§11) 5) Preparation of 0.5×10^6/mL cells suspension: cryopreserved cells were thawed, isolated and suspended in Incubation Medium, then diluted with pre-warmed Incubation Medium to 0.5×10^6 cells/mL.
(§12) 6) Add 198 μL of pre-warmed cell suspensions in 96-well plates.
(§13) 7) Preparation of Quenching Plate: Transfer 125 μL of stop solution in a set of pre-labeled 96-well plates.
(§14) 8) Spike 2 μL dosing solution to each well of 96-well plates in duplicate.
(§15) 9) For TO Samples, mix to achieve a homogenous suspension for about 1 min, then immediately transfer 25 μL of each sample into well containing 125 μL of ice-cold stop solution followed by mixing.
(§16) 10) Incubate all plates at 37° C. in a 95% humidified incubator at 5% CO2 to start the reactions with constant shaking.
(§17) 11) At 15, 30, 60 and 90 min, mix samples and then transfer 25 μL of each sample at each time point to well containing 125 μL of ice-cold stop solution followed by mixing.
(§18) 12) Medium Control (MC) sample plates (labeled as TO-MC and T90-MC) are prepared in the same way as cell incubation except that medium was used instead of cell suspension.
(§19) 13) At each corresponding time point, stop the reactions by removing the plates from incubator and mixing with 125 μL of ice-cold stop solution.
(§20) 14) Vortex the plates immediately on a plate shaker at 600 rpm for 10 minutes. Then, centrifuge all sample plates at 3220×g for 20 min at 4° C.
(§21) 15) After centrifugation, 80 μL/well of supernatant in the sample plates are transferred to another set of pre-labeled 96-well plates which containing 240 μL of ultra pure water according to the plate map.
(§22) 16) Analytical plates are sealed and store at 4° C. until LC-MS/MS analysis.
(§23) The remaining percents of test articles after incubation were calculated by the follow equations:
(§24) Use the following equation of first order kinetics to calculate T1/2 and CLint:

[6] = Hepatic metabolic stability (HMS) assay, mouse hepatocytes; details: mouse, cryopreserved hepatocytes
[7] = test system: cryopreserved hepatocytes
Procedure: 1) 10 mM test compounds were provided.
as §8, §9, §10, §11, §12, §13, §14, §15, §16, §17, §18, §19, §20, §21, §22, §23, §24

CYP2C19 = CYP2C19 (Homo sapiens (Human), UniProt P33261); assay: CYP isoforms inhibitory assay in human liver microsome, CYP2C19; assay type: in vitro ADME; details: substrate s-mephenytoin
Chain of CYP2C19 (P33261 whole entry, canonical isoform): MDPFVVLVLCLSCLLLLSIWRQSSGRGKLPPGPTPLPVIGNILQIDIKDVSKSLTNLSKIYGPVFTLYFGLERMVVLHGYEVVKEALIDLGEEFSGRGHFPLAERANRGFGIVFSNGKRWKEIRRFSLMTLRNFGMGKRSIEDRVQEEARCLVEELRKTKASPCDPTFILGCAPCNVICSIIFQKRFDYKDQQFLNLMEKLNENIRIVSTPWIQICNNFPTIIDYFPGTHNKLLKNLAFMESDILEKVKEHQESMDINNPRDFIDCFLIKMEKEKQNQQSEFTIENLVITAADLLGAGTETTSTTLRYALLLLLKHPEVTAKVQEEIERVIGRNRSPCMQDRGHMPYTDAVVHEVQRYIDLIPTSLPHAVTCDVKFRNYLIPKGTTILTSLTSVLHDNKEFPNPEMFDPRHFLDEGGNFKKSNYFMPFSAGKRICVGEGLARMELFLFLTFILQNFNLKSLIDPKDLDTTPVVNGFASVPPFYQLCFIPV
Procedure: (§1) CYP isoforms inhibitory activities of test compounds were measured in human liver microsome.
(§2) Preparation details of these substrates are given in below table. The substrate stock solution was stored in a −20° C. freezer. Prior to use, the substrate stock solution was removed from the freezer and allowed to rise to room temperature. Then the substrate stock solution was mixed on a whirly mixer for 30 seconds.
(§3) HLMs were stored in a −80° C. freezer. Prior to use, the pooled HLM was removed from the freezer and allowed to thaw in a 37° C. water bath and then stored on wet ice.
(§4) The positive control inhibitors and their concentrations used by each isozyme are summarized below.
(§5) All samples were incubated in a 37° C. water bath, with three parallels for each concentration of the test compound and two parallels for each concentration of the positive control inhibitor. 100 μL of microsome working solution was taken and added 2 μL of the test product or positive inhibitor working solution. 2 μL solvents was added to the solvent control, and put in a water bath to pre-incubate for 10 min. After pre-incubation, 98 μL of NADPH regeneration solution was added to all samples to start the reaction. Then the mixture was put back in the water bath and incubated for a certain period of time.
(§6) The reaction was quenched by 200 μL stop solution. […]
(§7) IC50 values were determined using 3- or 4-parameter logistic equation.

[8] = test system: cryopreserved hepatocytes; remark: listed apart in the source
[9] = test system: cryopreserved hepatocytes; remark: listed apart in the source
[10] = test system: cryopreserved hepatocytes; remark: listed apart in the source
Procedure: 1) 10 mM test compounds were provided.
as §8, §9, §10, §11, §12, §13, §14, §15, §16, §17, §18, §19, §20, §21, §22, §23, §24

CYP1A2 = CYP1A2 (Homo sapiens (Human), UniProt P05177); details: microsomes
Chain of CYP1A2 (P05177 whole entry): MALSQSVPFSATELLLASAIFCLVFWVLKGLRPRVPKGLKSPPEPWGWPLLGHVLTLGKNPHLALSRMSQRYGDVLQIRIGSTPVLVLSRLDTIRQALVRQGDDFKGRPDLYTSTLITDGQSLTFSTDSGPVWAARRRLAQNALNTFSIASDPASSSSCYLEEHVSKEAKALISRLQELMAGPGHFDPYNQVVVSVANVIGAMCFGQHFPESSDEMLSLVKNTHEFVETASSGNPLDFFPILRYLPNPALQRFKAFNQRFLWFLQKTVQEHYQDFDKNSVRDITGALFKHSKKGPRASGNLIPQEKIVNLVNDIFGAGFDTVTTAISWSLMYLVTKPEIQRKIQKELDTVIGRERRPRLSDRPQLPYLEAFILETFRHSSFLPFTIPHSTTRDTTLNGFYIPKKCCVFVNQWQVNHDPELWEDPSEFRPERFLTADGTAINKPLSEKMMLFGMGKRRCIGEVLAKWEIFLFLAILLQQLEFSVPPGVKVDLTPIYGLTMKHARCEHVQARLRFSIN
Procedure: as §1, §2, §3, §4, §5, §6, §7

CYP2D6 = CYP2D6 (Homo sapiens (Human), UniProt P10635); assay: CYP isoforms inhibitory assay in human liver microsome, CYP2D6; details: read-out: IC50 CYP2D6, substrate dextromethorphan
Chain of CYP2D6 (P10635 whole entry, canonical isoform): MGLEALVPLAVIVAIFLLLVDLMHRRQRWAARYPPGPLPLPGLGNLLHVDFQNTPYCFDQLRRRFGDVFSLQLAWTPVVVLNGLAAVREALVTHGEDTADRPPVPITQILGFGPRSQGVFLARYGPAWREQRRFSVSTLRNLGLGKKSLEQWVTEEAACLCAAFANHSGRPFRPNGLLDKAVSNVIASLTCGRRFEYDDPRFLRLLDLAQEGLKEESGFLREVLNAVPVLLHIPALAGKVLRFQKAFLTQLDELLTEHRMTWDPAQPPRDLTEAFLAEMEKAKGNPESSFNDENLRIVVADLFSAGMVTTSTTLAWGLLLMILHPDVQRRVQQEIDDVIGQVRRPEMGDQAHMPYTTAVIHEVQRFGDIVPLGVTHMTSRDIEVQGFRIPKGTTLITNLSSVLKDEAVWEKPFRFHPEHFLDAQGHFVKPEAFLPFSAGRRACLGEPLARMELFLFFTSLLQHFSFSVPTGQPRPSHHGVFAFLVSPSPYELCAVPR
Procedure: as §1, §2, §3, §4, §5, §6, §7

[11] = mouse, microsomes
[12] = Liver microsome metabolic stability (LMS) assay, human
[13] = Liver microsome metabolic stability (LMS) assay, cynomolgus monkey

SMILES: CN(C(=O)c1ccc2nc(N)c3cncn3c2c1)[C@@H]1COc2cc(C(F)(F)F)ccc21 [Compound 12]
- half-life at 1 μM (in vitro [1]): > 2.42 h
- half-life at 1 μM [2]: 1.84 h
- half-life at 1 μM (in vitro [3]): 0.935 h
- half-life at 1 μM (in vitro [4]): > 2.42 h
- half-life at 1 μM [5]: 1.11 h
- half-life at 1 μM [6]: 1.86 h

SMILES: CN(C(=O)c1ccc2nc(N)c3cncn3c2c1)C1COc2cc(C(F)(F)F)ccc21 (stereo not shown) [Compound 17]
- CLint (liver) R [7]: 49.8 mL/min/kg
- CLint (hep) R ([7]; rat): 10.6 μL/min/10^6
- T1/2 (hepatocytes) R ([7]; rat): 2.172 h
- IC50 (CYP2C19): 15.1 µM
- CLint (liver) M [8]: 183.3 mL/min/kg
- CLint (hep) M ([8]; mouse): 15.4 μL/min/10^6
- T1/2 (hepatocytes) M ([8]; mouse): 1.5 h
- CLint (liver) H [9]: 20.2 mL/min/kg
- CLint (hep) H ([9]; human): 7.3 μL/min/10^6
- T1/2 (hepatocytes) H ([9]; human): 3.18 h
- CLint (liver) C [10]: 62.0 mL/min/kg
- CLint (hep) C ([10]; cynomolgus monkey): 17.2 μL/min/10^6
- T1/2 (hepatocytes) C ([10]; cynomolgus monkey): 1.34 h
- IC50 (CYP1A2): > 30 µM
- IC50 (CYP2D6): > 30 µM
- T1/2 of LMS, M [11]: 1.61 h

SMILES: CN(C(=O)c1cc2c(cn1)nc(N)c1cncn12)C1CC(F)(F)c2cc(C(F)(F)F)ccc21 (stereo not shown) [Compound 24]
- CLint (mic) H ([12]; human liver microsome): <9.6 µL/min/mg
- T1/2 of LMS, H ([12]; human liver microsome 0.5 mg protein/mL, 1 μM, NADPH): >2.42 h
- CLint (liver) H ([12]; human liver microsome, scaled to liver): <8.6 mL/min/kg
- CLint (mic) C ([13]; cynomolgus monkey liver microsome): 9.9 µL/min/mg
- T1/2 of LMS, C ([13]; cynomolgus monkey liver microsome 0.5 mg protein/mL, 1 μM, NADPH): 2.338 h
- CLint (liver) C ([13]; cynomolgus monkey liver microsome, scaled to liver): 13.3 mL/min/kg
